Test results published in the supplement of paper PMC10307832.

Key:
Test in all cases: relative viability (nuclei count vs DMSO), 5 days (fraction); higher = more cells survive
Entinostat + Foretinib = compound: Nc1ccccc1NC(=O)c1ccc(CNC(=O)OCc2cccnc2)cc1 [Entinostat] + COc1cc2c(Oc3ccc(NC(=O)C4(C(=O)Nc5ccc(F)cc5)CC4)cc3F)ccnc2cc1OCCCN1CCOCC1 [Foretinib] (partner 0.25 µM)
Outline: (§1)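 Lung cancer cell lines were pin-tool dosed in 1536-well plates on the day after seeding, with either a lone drug or a fixed anchor-drug dose plus five library-drug doses (not always all listed) in √10 steps. Nuclei were counted on 4× images after 5 days. Relative viability is the ratio of treated-well to vehicle-well nuclei counts, with each value a median of duplicate plates.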

Entinostat + Lapatinib = compound: Nc1ccccc1NC(=O)c1ccc(CNC(=O)OCc2cccnc2)cc1 [Entinostat] + CS(=O)(=O)CCNCc1ccc(-c2ccc3ncnc(Nc4ccc(OCc5cccc(F)c5)c(Cl)c4)c3c2)o1 [Lapatinib] (partner 2 µM)
Outline: as §1

Entinostat + Crizotinib = compound: Nc1ccccc1NC(=O)c1ccc(CNC(=O)OCc2cccnc2)cc1 [Entinostat] + C[C@@H](Oc1cc(-c2cnn(C3CCNCC3)c2)cnc1N)c1c(Cl)ccc(F)c1Cl [Crizotinib] (partner 1 µM)
Outline: as §1

SGI-1776 + Bortezomib = compound: CN1CCC(CNc2ccc3ncc(-c4cccc(OC(F)(F)F)c4)n3n2)CC1 [SGI-1776] + CC(C)C[C@H](NC(=O)[C@H](Cc1ccccc1)NC(=O)c1cnccn1)B(O)O [Bortezomib] (partner 0.002 µM)
Outline: as §1

| Cell Line | relative viability (Entinostat + Foretinib; first compound 0.02 µM) | relative viability (Entinostat + Foretinib; first compound 0.06325 µM) | relative viability (Entinostat + Foretinib; first compound 0.2 µM) | relative viability (Entinostat + Foretinib; first compound 0.6325 µM) | relative viability (Entinostat + Foretinib; first compound 2 µM) | relative viability (Entinostat + Lapatinib; first compound 0.02 µM) | relative viability (Entinostat + Lapatinib; first compound 0.06325 µM) | relative viability (Entinostat + Lapatinib; first compound 0.2 µM) | relative viability (Entinostat + Lapatinib; first compound 0.6325 µM) | relative viability (Entinostat + Lapatinib; first compound 2 µM) | relative viability (Entinostat + Crizotinib; first compound 0.02 µM) | relative viability (Entinostat + Crizotinib; first compound 0.06325 µM) | relative viability (Entinostat + Crizotinib; first compound 0.2 µM) | relative viability (Entinostat + Crizotinib; first compound 0.6325 µM) | relative viability (Entinostat + Crizotinib; first compound 2 µM) | relative viability (SGI-1776 + Bortezomib; first compound 0.08 µM) | relative viability (SGI-1776 + Bortezomib; first compound 0.8 µM) | relative viability (SGI-1776 + Bortezomib; first compound 2.53 µM) | relative viability (SGI-1776 + Bortezomib; first compound 8 µM) |
| --- | --- | --- | --- | --- | --- | --- | --- | --- | --- | --- | --- | --- | --- | --- | --- | --- | --- | --- | --- |
| SW 1573 | 0.966 | 0.927 | 0.877 | 0.917 | 0.7 | 1.42 | 1.23 | 1.19 | 1.29 | 0.949 | 0.848 | 0.865 | 0.937 | 0.761 | 0.592 | 1.03 | 0.872 | 1.07 | 0.935 |
| LU99A | 0.773 | 0.739 | 0.76 | 0.579 | 0.442 | 0.957 | 1.04 | 0.863 | 0.617 | 0.592 | 0.537 | 0.592 | 0.565 | 0.38 | 0.267 | 1.3 | 1.15 | 1.53 | 1.03 |
| NCI-H1299 | 1.07 | 1.07 | 1.01 | 0.855 | 0.879 | 0.927 | 0.933 | 0.956 | 0.805 | 0.571 | 0.904 | 0.925 | 0.91 | 0.767 | 0.561 | 1.02 | 1.04 | 1.02 | 1.04 |
| NCI-H1355 | 0.903 | 0.91 | 0.751 | 0.695 | 0.571 | 1.03 | 0.978 | 0.798 | 0.568 | 0.513 | 1.06 | 1.01 | 0.9 | 0.743 | 0.599 | 1.2 | 1.24 | 1.24 | 1.03 |
| HARA | 0.903 | 0.913 | 1.01 | 0.341 | 0.416 | 0.792 | 0.872 | 0.786 | 0.671 | 0.374 | 1.02 | 1.02 | 1.05 | 0.974 | 0.565 | 1.2 | 1.21 | 1.01 | 1.05 |
| LXF-289 | 1.01 | 0.916 | 0.88 | 0.825 | 0.59 | 0.884 | 0.916 | 0.841 | 0.647 | 0.481 | 0.789 | 0.806 | 0.788 | 0.669 | 0.331 | 1.03 | 1.04 | 1.02 | 0.973 |
| 201T | 1.12 | 1.22 | 1.2 | 0.958 | 0.453 | 1.02 | 1.03 | 0.959 | 0.937 | 0.665 | 1.03 | 1.03 | 0.919 | 0.743 | 0.754 | 1.09 | 1.08 | 1.11 | 0.986 |
| HCC-827 | 0.954 | 0.962 | 0.83 | 0.737 | 0.355 | 0.18 | 0.184 | 0.126 | 0.147 | 0.17 | 0.868 | 0.889 | 0.699 | 0.559 | 0.384 | 1.11 | 0.984 | 1.05 | 1.04 |
| NCI-H1703 | 0.322 | 0.346 | 0.49 | 0.812 | 0.688 | 1.22 | 1.17 | 1.59 | 1.05 | 0.453 | 0.674 | 0.786 | 0.884 | 0.415 | 0.358 | 0.328 | 0.407 | 0.272 | 0.131 |
| NCI-H1975 | 0.904 | 0.78 | 0.64 | 0.326 | 0.224 | 0.812 | 0.801 | 0.669 | 0.274 | 0.189 | 0.762 | 0.778 | 0.564 | 0.278 | 0.201 | 0.393 | 0.399 | 0.35 | 0.277 |
| NCI-H2023 | 0.765 | 0.749 | 0.408 | 0.162 | 0.11 | 0.633 | 0.585 | 0.261 | 0.129 | 0.0771 | 0.526 | 0.596 | 0.324 | 0.17 | 0.109 | 1.13 | 1.07 | 0.988 | 0.727 |
| ChaGo-K-1 | 1.06 | 0.914 | 0.893 | 0.842 | 0.673 | – | – | – | – | – | 1.18 | 1.19 | 0.967 | 0.966 | 0.631 | 0.982 | 1.22 | 0.644 | 0.785 |
| COR-L 105 | 1.19 | 0.997 | 1.14 | 0.677 | 0.548 | 0.362 | 0.357 | 0.358 | 0.328 | 0.34 | 0.92 | 0.778 | 0.655 | 0.494 | 0.216 | 0.929 | 0.833 | 0.587 | 0.282 |
| NCI-H2170 | 0.978 | 1.05 | 0.964 | 0.597 | 0.613 | 0.289 | 0.3 | 0.304 | 0.244 | 0.216 | 1.17 | 1.06 | 1.02 | 0.704 | 0.491 | – | – | – | – |
| A549 | 1.01 | 0.942 | 0.878 | 0.757 | 0.288 | 1 | 0.956 | 0.92 | 0.755 | 0.481 | 0.775 | 0.863 | 0.743 | 0.449 | 0.111 | – | – | – | – |
| NCI-H1993 | 0.891 | 0.686 | 0.664 | 0.618 | 0.637 | 0.749 | 0.911 | 0.867 | 0.728 | 0.69 | 0.832 | 0.848 | 0.774 | 0.76 | 0.597 | 1.21 | 1.14 | 0.967 | 0.803 |
| Calu-6 | 0.889 | 0.849 | 0.873 | 0.565 | 0.513 | 1.09 | 0.967 | 0.963 | 0.698 | 0.498 | 0.738 | 0.713 | 0.755 | 0.494 | 0.317 | 0.954 | 1.06 | 0.954 | 0.658 |
| NCI-H1623 | 0.862 | 0.84 | 0.766 | 0.512 | 0.375 | – | – | – | – | – | – | – | – | – | – | – | – | – | – |
